Like-named read-outs stand apart in the source and are kept apart here.
Columns and labels:
[1] = system: human embryonic lung (HEL) fibroblasts
[2] = system: thymidine kinase-deficient (TK−) HSV-1 KOS strain; format: cell-based, herpes simplex virus type 1; settings: HEL cell cultures
[3] = system: human embryonic lung (HEL) fibroblasts; test: Minimum cytotoxic concentration, HEL cell morphology
TK- VZV (07-1) = format: cell-based, varicella-zoster virus
HIV-1 = HIV-1 inhibition in human tonsillar tissues ex vivo; format: cell-based, human immunodeficiency virus type 1; settings: HIV-1 X4LAI.04, 12 days culture

Structure (SMILES) | Cytotoxicity MCC [1] [µM] | Cytotoxicity MCC ([3]; Table 3 (HSV assays)) [µM] | Cytotoxicity MCC ([3]; Table 4 (HCMV/VZV assays)) [µM] | fold more active than ACV against VZV TK− 07-1 strain (TK- VZV (07-1)) [fold] | also measured
Nc1nc(O)c2ncn(COC(CO)CO)c2n1 [Compound 1, ganciclovir, reference compound] | >100 |  |  |  | 
Nc1nc2c(ncn2CCC(CO)CO)c(=O)[nH]1 [Compound 2, penciclovir, reference compound] | >100 |  |  |  | 
CC(C)(NP(=O)(OCC(CO)OCn1cnc2c(=O)[nH]c(N)nc21)Oc1ccccc1)C(=O)OCc1ccccc1 (stereo not shown) [Compound 20] |  | >100 | >50 | ≥ 20 | fold difference in EC50 values between HSV-1 TK+ and TK− strains [2]: < 2.5 fold
C[C@H](NP(=O)(OCC(CO)OCn1cnc2c(=O)[nH]c(N)nc21)Oc1ccccc1)C(=O)OCc1ccccc1 (stereo partly shown) [Compound 27] |  | >100 | >100 | ≥ 20 | 
C[C@H](NP(=O)(OCC(COP(=O)(N[C@@H](C)C(=O)OCc1ccccc1)Oc1ccccc1)SCn1cnc2c(=O)[nH]c(N)nc21)Oc1ccccc1)C(=O)OCc1ccccc1 (stereo partly shown) [Compound 55] |  |  |  |  | Anti-HIV Activity EC50 (HIV-1): did not inhibit HIV

Reference: PMC5731253 (Journal of medicinal chemistry, 2017)
